According to PubChem BioAssay (NCI):
Several values for one entry are separate records, joined by “and”; a condition that tells them apart may be missing. Identical values can stand only once.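 Briefly, cells in 96-well plates were exposed to five compound concentrations for 48 h, and endpoints were estimated by linear interpolation. GI50 = concentration required for 50% inhibition of growth. TGI is the concentration that stops growth completely.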

What was measured:
Assay in all cases: NCI-60 cell line screen, 48 h
HCT-15 colon = system: HCT-15 colon
TK-10 renal = system: TK-10 renal
SNB-19 CNS = system: SNB-19 CNS
LXFL 529 NSCLC = system: LXFL 529 NSCLC
SF-268 CNS = system: SF-268 CNS
CCRF-CEM leukemia = system: CCRF-CEM leukemia
OVCAR-4 ovarian = system: OVCAR-4 ovarian
COLO 205 colon = system: COLO 205 colon
HT29 colon = system: HT29 colon
SNB-75 CNS = system: SNB-75 CNS
NCI-H23 lung = system: NCI-H23 lung
NCI-H226 lung = system: NCI-H226 lung
KM12 colon = system: KM12 colon
UACC-257 melanoma = system: UACC-257 melanoma
HOP-18 NSCLC = system: HOP-18 NSCLC
KM20L2 colon = system: KM20L2 colon
MALME-3M melanoma = system: MALME-3M melanoma
MOLT-4 leukemia = system: MOLT-4 leukemia
786-0 renal = system: 786-0 renal
CAKI-1 renal = system: CAKI-1 renal
EKVX NSCLC = system: EKVX NSCLC
XF 498 CNS = system: XF 498 CNS
SN12C renal = system: SN12C renal
SNB-78 CNS = system: SNB-78 CNS
SK-MEL-28 melanoma = system: SK-MEL-28 melanoma
HL-60(TB) leukemia = system: HL-60(TB) leukemia
OVCAR-3 ovarian = system: OVCAR-3 ovarian
SK-OV-3 ovarian = system: SK-OV-3 ovarian
RPMI-8226 leukemia = system: RPMI-8226 leukemia
OVCAR-5 ovarian = system: OVCAR-5 ovarian
M19-MEL melanoma = system: M19-MEL melanoma
RXF 393 renal = system: RXF 393 renal
DMS 273 small cell lung = system: DMS 273 small cell lung
SF-295 CNS = system: SF-295 CNS
HCT-116 colon = system: HCT-116 colon
K-562 leukemia = system: K-562 leukemia
DLD-1 colon = system: DLD-1 colon
OVCAR-8 ovarian = system: OVCAR-8 ovarian
A498 renal = system: A498 renal
NCI-H522 lung = system: NCI-H522 lung
M14 melanoma = system: M14 melanoma
ACHN renal = system: ACHN renal
SK-MEL-5 melanoma = system: SK-MEL-5 melanoma
HOP-92 NSCLC = system: HOP-92 NSCLC
HCC-2998 colon = system: HCC-2998 colon
IGROV1 ovarian = system: IGROV1 ovarian
UACC-62 melanoma = system: UACC-62 melanoma
LOX IMVI melanoma = system: LOX IMVI melanoma
NCI-H460 lung = system: NCI-H460 lung
U251 CNS = system: U251 CNS
A549 NSCLC = system: A549 NSCLC
DMS 114 small cell lung = system: DMS 114 small cell lung
SF-539 CNS = system: SF-539 CNS
HOP-62 NSCLC = system: HOP-62 NSCLC
UO-31 renal = system: UO-31 renal
SK-MEL-2 melanoma = system: SK-MEL-2 melanoma
SW-620 colon = system: SW-620 colon
SR leukemia = system: SR leukemia
RXF-631 renal = system: RXF-631 renal

N/C(=N\NS(=O)(=O)c1ccccc1)Oc1ccc(Cl)cc1
TGI (HCT-15 colon): > 100 µM | TGI (TK-10 renal): > 100 µM | TGI (SNB-19 CNS): > 100 µM | TGI (LXFL 529 NSCLC): > 100 µM | TGI (SF-268 CNS): > 100 µM | TGI (CCRF-CEM leukemia): > 100 µM | TGI (OVCAR-4 ovarian): > 100 µM | TGI (COLO 205 colon): > 100 µM | TGI (HT29 colon): > 100 µM | TGI (SNB-75 CNS): > 100 µM | TGI (NCI-H23 lung): > 100 µM | TGI (NCI-H226 lung): > 100 µM | TGI (KM12 colon): > 100 µM | TGI (UACC-257 melanoma): > 100 µM | TGI (HOP-18 NSCLC): > 100 µM | TGI (KM20L2 colon): > 100 µM | TGI (MALME-3M melanoma): > 100 µM | TGI (MOLT-4 leukemia): > 100 µM | TGI (786-0 renal): > 100 µM | TGI (CAKI-1 renal): > 100 µM | TGI (EKVX NSCLC): > 100 µM | TGI (XF 498 CNS): > 100 µM | TGI (SN12C renal): > 100 µM | TGI (SNB-78 CNS): > 100 µM | TGI (SK-MEL-28 melanoma): > 100 µM | TGI (HL-60(TB) leukemia): 60.6 µM | TGI (OVCAR-3 ovarian): > 100 µM | TGI (SK-OV-3 ovarian): > 100 µM | TGI (RPMI-8226 leukemia): > 100 µM | TGI (OVCAR-5 ovarian): > 100 µM | TGI (M19-MEL melanoma): > 100 µM | TGI (RXF 393 renal): 58.1 µM | TGI (DMS 273 small cell lung): > 100 µM | TGI (SF-295 CNS): > 100 µM | TGI (HCT-116 colon): > 100 µM | TGI (K-562 leukemia): > 100 µM | TGI (DLD-1 colon): > 100 µM | TGI (OVCAR-8 ovarian): > 100 µM | TGI (A498 renal): > 100 µM | TGI (NCI-H522 lung): > 100 µM | TGI (M14 melanoma): > 100 µM | TGI (ACHN renal): > 100 µM | TGI (SK-MEL-5 melanoma): > 100 µM | TGI (HOP-92 NSCLC): > 100 µM | TGI (HCC-2998 colon): > 100 µM | TGI (IGROV1 ovarian): > 100 µM | TGI (UACC-62 melanoma): > 100 µM | TGI (LOX IMVI melanoma): > 100 µM | TGI (NCI-H460 lung): > 100 µM | TGI (U251 CNS): > 100 µM | TGI (A549 NSCLC): > 100 µM | TGI (DMS 114 small cell lung): > 100 µM | TGI (SF-539 CNS): > 100 µM | TGI (HOP-62 NSCLC): > 100 µM | TGI (UO-31 renal): > 100 µM | TGI (SK-MEL-2 melanoma): > 100 µM | TGI (SW-620 colon): 19.5 µM | TGI (SR leukemia): > 100 µM

C=CN1C(=O)OC(c2ccccc2)C1c1ccccc1 (stereo not drawn)
GI50 (HCT-15 colon): > 100 µM | TGI (HCT-15 colon): > 100 µM | GI50 (TK-10 renal): > 100 µM | TGI (TK-10 renal): > 100 µM | GI50 (SNB-19 CNS): > 100 µM | TGI (SNB-19 CNS): > 100 µM | GI50 (LXFL 529 NSCLC): > 100 µM | TGI (LXFL 529 NSCLC): > 100 µM | GI50 (SF-268 CNS): > 100 µM | TGI (SF-268 CNS): > 100 µM | GI50 (CCRF-CEM leukemia): > 100 µM | TGI (CCRF-CEM leukemia): > 100 µM | GI50 (OVCAR-4 ovarian): > 100 µM | TGI (OVCAR-4 ovarian): > 100 µM | GI50 (COLO 205 colon): > 100 µM | TGI (COLO 205 colon): > 100 µM | GI50 (HT29 colon): > 100 µM | TGI (HT29 colon): > 100 µM | TGI (SNB-75 CNS): 21.9 µM and > 100 µM | GI50 (NCI-H23 lung): > 100 µM | TGI (NCI-H23 lung): > 100 µM | GI50 (NCI-H226 lung): > 100 µM | TGI (NCI-H226 lung): > 100 µM | GI50 (KM12 colon): > 100 µM | TGI (KM12 colon): > 100 µM | GI50 (UACC-257 melanoma): > 100 µM | TGI (UACC-257 melanoma): > 100 µM | GI50 (HOP-18 NSCLC): > 100 µM | TGI (HOP-18 NSCLC): > 100 µM | GI50 (KM20L2 colon): > 100 µM | TGI (KM20L2 colon): > 100 µM | GI50 (MALME-3M melanoma): > 100 µM | TGI (MALME-3M melanoma): > 100 µM | GI50 (MOLT-4 leukemia): > 100 µM | TGI (MOLT-4 leukemia): > 100 µM | GI50 (786-0 renal): > 100 µM | TGI (786-0 renal): > 100 µM | GI50 (CAKI-1 renal): > 100 µM | TGI (CAKI-1 renal): > 100 µM | GI50 (EKVX NSCLC): > 100 µM | TGI (EKVX NSCLC): > 100 µM | GI50 (SN12C renal): > 100 µM | TGI (SN12C renal): > 100 µM | GI50 (SNB-78 CNS): > 100 µM | TGI (SNB-78 CNS): > 100 µM | GI50 (SK-MEL-28 melanoma): > 100 µM | TGI (SK-MEL-28 melanoma): > 100 µM | GI50 (RXF-631 renal): > 100 µM | TGI (RXF-631 renal): > 100 µM | TGI (HL-60(TB) leukemia): > 100 µM | GI50 (OVCAR-3 ovarian): > 100 µM | TGI (OVCAR-3 ovarian): > 100 µM | GI50 (SK-OV-3 ovarian): > 100 µM | TGI (SK-OV-3 ovarian): > 100 µM | GI50 (RPMI-8226 leukemia): > 31.6 µM and 88.6 µM | TGI (RPMI-8226 leukemia): > 100 µM | TGI (OVCAR-5 ovarian): > 100 µM | GI50 (M19-MEL melanoma): > 100 µM | TGI (M19-MEL melanoma): > 100 µM | GI50 (RXF 393 renal): > 100 µM | TGI (RXF 393 renal): > 100 µM | TGI (DMS 273 small cell lung): > 100 µM | TGI (SF-295 CNS): > 100 µM | GI50 (HCT-116 colon): > 100 µM | TGI (HCT-116 colon): > 100 µM | TGI (K-562 leukemia): > 100 µM | GI50 (DLD-1 colon): > 100 µM | TGI (DLD-1 colon): > 100 µM | GI50 (OVCAR-8 ovarian): > 100 µM | TGI (OVCAR-8 ovarian): > 100 µM | GI50 (A498 renal): > 100 µM | TGI (A498 renal): > 100 µM | GI50 (NCI-H522 lung): > 100 µM | TGI (NCI-H522 lung): > 100 µM | GI50 (M14 melanoma): > 100 µM | TGI (M14 melanoma): > 100 µM | GI50 (ACHN renal): > 100 µM | TGI (ACHN renal): > 100 µM | GI50 (SK-MEL-5 melanoma): > 100 µM | TGI (SK-MEL-5 melanoma): > 100 µM | GI50 (HOP-92 NSCLC): > 100 µM | TGI (HOP-92 NSCLC): > 100 µM | GI50 (HCC-2998 colon): > 100 µM | TGI (HCC-2998 colon): > 100 µM | GI50 (IGROV1 ovarian): > 100 µM | TGI (IGROV1 ovarian): > 100 µM | GI50 (UACC-62 melanoma): > 100 µM | TGI (UACC-62 melanoma): > 100 µM | TGI (LOX IMVI melanoma): > 100 µM | GI50 (NCI-H460 lung): > 100 µM | TGI (NCI-H460 lung): > 100 µM | TGI (U251 CNS): > 100 µM | GI50 (A549 NSCLC): > 100 µM | TGI (A549 NSCLC): > 100 µM | GI50 (DMS 114 small cell lung): > 31.6 µM and 73.1 µM | TGI (DMS 114 small cell lung): > 100 µM | TGI (SF-539 CNS): > 100 µM | GI50 (HOP-62 NSCLC): 52.8 µM | TGI (HOP-62 NSCLC): > 100 µM | GI50 (UO-31 renal): > 100 µM | TGI (UO-31 renal): > 100 µM | GI50 (SK-MEL-2 melanoma): > 100 µM | TGI (SK-MEL-2 melanoma): > 100 µM | TGI (SW-620 colon): > 100 µM | TGI (SR leukemia): > 100 µM
